Data: ChEMBL document CHEMBL1133899, “Amino acid derived sulfonamide hydroxamates as inhibitors of procollagen C-proteinase: solid-phase synthesis of ornithine analogues” (Bioorg Med Chem Lett, 2001)

Tests used:
[1] = biological target: T1, Bone morphogenetic protein 1 (Homo sapiens, UniProt P13497); assay: Inhibitory activity against procollagen C-Proteinase (PCP).
T1 sequence (P13497 whole entry): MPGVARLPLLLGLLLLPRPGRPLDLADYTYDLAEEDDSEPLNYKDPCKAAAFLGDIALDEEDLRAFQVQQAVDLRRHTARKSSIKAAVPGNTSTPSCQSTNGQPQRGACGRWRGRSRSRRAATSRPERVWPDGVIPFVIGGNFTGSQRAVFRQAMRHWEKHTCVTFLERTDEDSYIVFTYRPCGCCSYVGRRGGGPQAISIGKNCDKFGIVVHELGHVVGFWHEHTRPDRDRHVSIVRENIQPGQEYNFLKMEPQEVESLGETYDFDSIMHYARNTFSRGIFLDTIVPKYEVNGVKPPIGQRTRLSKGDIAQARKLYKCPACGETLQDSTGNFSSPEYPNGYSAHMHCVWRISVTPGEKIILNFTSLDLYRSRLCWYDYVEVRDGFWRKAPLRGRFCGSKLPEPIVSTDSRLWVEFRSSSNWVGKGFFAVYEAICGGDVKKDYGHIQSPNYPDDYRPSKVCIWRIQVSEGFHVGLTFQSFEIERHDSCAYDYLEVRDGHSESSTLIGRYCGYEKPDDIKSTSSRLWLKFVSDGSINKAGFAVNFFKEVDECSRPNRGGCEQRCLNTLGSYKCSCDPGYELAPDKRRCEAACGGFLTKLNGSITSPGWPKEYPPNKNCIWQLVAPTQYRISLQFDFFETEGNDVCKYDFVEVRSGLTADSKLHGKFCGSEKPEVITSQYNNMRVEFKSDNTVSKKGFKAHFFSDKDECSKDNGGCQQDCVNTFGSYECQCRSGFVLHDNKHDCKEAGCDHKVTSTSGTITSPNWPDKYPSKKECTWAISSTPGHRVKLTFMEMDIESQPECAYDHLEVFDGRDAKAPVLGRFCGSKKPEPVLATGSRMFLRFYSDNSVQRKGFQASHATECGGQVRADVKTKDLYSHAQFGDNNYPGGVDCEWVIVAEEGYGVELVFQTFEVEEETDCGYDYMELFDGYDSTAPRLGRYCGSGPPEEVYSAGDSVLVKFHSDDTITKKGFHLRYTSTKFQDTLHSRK

[2] = biological target: T1, Bone morphogenetic protein 1; assay: The compound was evaluated for its inhibitory effect against Procollagen C-terminal proteinase

Row | IC50 [1] | IC50 [2] | Structure (SMILES)
1 | 24 nM |  | COc1ccc(S(=O)(=O)N(Cc2ccc3c(c2)OCO3)[C@H](CCCNC(=O)OCc2ccccc2Br)C(=O)NO)cc1
2 | 9 nM |  | COc1ccc(S(=O)(=O)N(Cc2ccc3c(c2)OCO3)[C@H](CCCNC(=O)OCc2ccccc2)C(=O)NO)cc1
3 | 3.9 nM |  | COc1ccc(S(=O)(=O)N(Cc2ccc3c(c2)OCO3)[C@H](CCCNC(=O)OCc2ccccc2Cl)C(=O)NO)cc1
4 | 58 nM |  | COc1ccc(S(=O)(=O)N(Cc2ccc3c(c2)OCO3)[C@H](CCCNC(=O)NCc2ccccc2)C(=O)NO)cc1
5 | 770 nM |  | COc1ccc(S(=O)(=O)N[C@H](CCCNC(=O)C2CC2)C(=O)NO)cc1
6 | 61000 nM |  | C[C@@H](NC(=O)NCCC[C@@H](NS(=O)(=O)c1ccc(F)cc1Cl)C(=O)NO)c1ccccc1
7 | 170 nM |  | COc1ccc(S(=O)(=O)N[C@H](CCCNC(=O)N[C@@H]2C[C@H]2c2ccccc2)C(=O)NO)cc1
8 | 5500 nM |  | COc1ccc(S(=O)(=O)N[C@@H](CCCNC(=O)NCCc2cccs2)C(=O)NO)cc1
9 | 140 nM |  | COC(=O)[C@@H](Cc1ccccc1)NC(=O)NCCC[C@@H](NS(=O)(=O)c1ccc(OC)cc1)C(=O)NO
10 | 110 nM | 110 nM | COc1ccc(S(=O)(=O)N[C@H](CCCNC(=O)N[C@H](C)c2ccccc2)C(=O)NO)cc1
11 | 120 nM |  | COc1ccc(S(=O)(=O)N(Cc2ccc3c(c2)OCO3)[C@H](CCCNC(=O)NCc2cccc3ccccc23)C(=O)NO)cc1
12 | 160 nM |  | COc1ccc(S(=O)(=O)N[C@H](CCCNC(=O)Nc2cccc(F)c2)C(=O)NO)cc1
13 | 260 nM |  | COc1ccc(S(=O)(=O)N[C@H](CCCNC(=O)Nc2ccccc2C)C(=O)NO)cc1
14 | 1600 nM |  | COc1ccc(S(=O)(=O)N[C@@H](CCCNC(=O)N[C@H](C)c2cccc3ccccc23)C(=O)NO)cc1
15 | 45 nM |  | COc1ccc(S(=O)(=O)N(Cc2ccc3c(c2)OCO3)[C@H](CCCNC(=O)OCC(C)C)C(=O)NO)cc1
16 | 50 nM |  | COc1ccc(S(=O)(=O)N(Cc2ccc3c(c2)OCO3)[C@H](CCCNC(=O)NCc2cccc(C)c2)C(=O)NO)cc1
17 | 38 nM |  | COc1ccc(S(=O)(=O)N(Cc2ccc3c(c2)OCO3)[C@H](CCCNC(=O)OCc2cccc([N+](=O)[O-])c2)C(=O)NO)cc1
18 | 4000 nM |  | COc1ccc(S(=O)(=O)N[C@@H](CCCNC(=O)Nc2cccc(F)c2)C(=O)NO)cc1
19 | 1600 nM |  | COc1ccc(S(=O)(=O)N[C@H](CCCNC(=O)C2CCCCC2)C(=O)NO)cc1
20 | 97 nM |  | CCCNC(=O)NCCC[C@H](C(=O)NO)N(Cc1ccc2c(c1)OCO2)S(=O)(=O)c1ccc(OC)cc1
21 | 7800 nM |  | COc1ccc(S(=O)(=O)N[C@@H](CCCNC(=O)Nc2ccccc2Cl)C(=O)NO)cc1
22 | 220 nM |  | CCOC(=O)NCCC[C@H](C(=O)NO)N(Cc1ccc2c(c1)OCO2)S(=O)(=O)c1ccc(OC)cc1
23 | 910 nM |  | C[C@@H](NC(=O)NCCC[C@@H](NS(=O)(=O)c1ccc(Cl)cc1)C(=O)NO)c1ccccc1
24 |  | 230 nM | COc1ccc(S(=O)(=O)N[C@H](CCCNC(=O)NC2CCCCC2)C(=O)NO)cc1
25 | 23000 nM |  | COc1cc(C)c(S(=O)(=O)N[C@H](CCCNC(=O)N[C@H](C)c2ccccc2)C(=O)NO)c(C)c1

Row | IC50 [1] | IC50 [2] | Structure (SMILES)
26 | 78 nM |  | COc1ccc(S(=O)(=O)N[C@H](CCCNC(=O)NCCc2cccs2)C(=O)NO)cc1
27 | 160 nM |  | COc1ccc(S(=O)(=O)N[C@H](CCCNC(=O)N[C@H](C)c2cccc3ccccc23)C(=O)NO)cc1
28 | 98 nM |  | COc1ccc(S(=O)(=O)N(Cc2ccc3c(c2)OCO3)[C@H](CCCNC(=O)c2ccccc2)C(=O)NO)cc1
29 | 50 nM |  | COc1ccc(S(=O)(=O)N(Cc2ccc3c(c2)OCO3)[C@H](CCCNC(=O)NCCc2ccccc2)C(=O)NO)cc1
30 | 2100 nM |  | COc1ccc(S(=O)(=O)N[C@@H](CCCNC(=O)N[C@H](C)c2ccccc2)C(=O)NO)cc1
31 | 9600 nM |  | C[C@@H](NC(=O)NCCC[C@@H](NS(=O)(=O)c1ccc(Cl)s1)C(=O)NO)c1ccccc1
32 | 3400 nM |  | COc1ccc(S(=O)(=O)N[C@H](CCCNS(=O)(=O)c2ccccc2)C(=O)NO)cc1
33 | 970 nM |  | COc1ccc(S(=O)(=O)N[C@H](CCCNC(=O)CCc2ccccc2)C(=O)NO)cc1
34 | 6900 nM |  | COc1ccc(S(=O)(=O)N[C@@H](CCCNC(=O)Nc2ccccc2)C(=O)NO)cc1
35 | 45 nM |  | COc1ccc(S(=O)(=O)N(Cc2ccc3c(c2)OCO3)[C@H](CCCNC(=O)OCc2ccc([N+](=O)[O-])cc2)C(=O)NO)cc1
36 | 55 nM |  | COc1ccc(S(=O)(=O)N[C@H](CCCNC(=O)Nc2ccccc2)C(=O)NO)cc1
37 | 5000 nM |  | C[C@@H](NC(=O)NCCC[C@@H](NS(=O)(=O)c1ccc(S(=O)(=O)c2cccs2)cc1)C(=O)NO)c1ccccc1
38 | 290 nM |  | COc1ccc(S(=O)(=O)N[C@@H](CCCNC(=O)NC2CC2c2ccccc2)C(=O)NO)cc1 (stereo partly specified)
39 | 1600 nM |  | COc1ccc(S(=O)(=O)N(C)[C@H](CCCNC(=O)Nc2ccccc2)C(=O)NO)cc1
40 | 990 nM |  | COc1ccc(S(=O)(=O)N[C@H](CCCNC(=S)NCc2ccccc2)C(=O)NO)cc1
41 | 3600 nM |  | COc1ccc(S(=O)(=O)N[C@@H](CCCNC(=O)NC2CCCCC2)C(=O)NO)cc1
42 | 92 nM |  | COc1ccc(S(=O)(=O)N[C@H](CCCNC(=O)Nc2ccccc2Cl)C(=O)NO)cc1
43 | 1700 nM |  | COc1ccc(S(=O)(=O)N[C@H](CCC/N=C(\S)NC2CCCCC2)C(=O)NO)cc1
44 | 4500 nM |  | COc1ccc(S(=O)(=O)N[C@H](CCCNC(=O)OC(C)(C)C)C(=O)NO)cc1
45 | 1400 nM |  | COc1ccc(S(=O)(=O)N[C@H](CCCNC(=O)C(C)C)C(=O)NO)cc1
46 | 2300 nM |  | C[C@@H](NC(=O)NCCC[C@@H](NS(=O)(=O)c1ccccc1Cl)C(=O)NO)c1ccccc1
47 | 7200 nM |  | COc1ccc(S(=O)(=O)N(C)[C@H](CCCNC(=O)Nc2ccccc2Cl)C(=O)NO)cc1
48 | 5900 nM |  | COC(=O)[C@@H](Cc1ccccc1)NC(=O)NCCC[C@H](NS(=O)(=O)c1ccc(OC)cc1)C(=O)NO
49 | 2300 nM |  | COc1ccc(S(=O)(=O)N(C)[C@H](CCCNC(=O)NC(C)c2ccccc2)C(=O)NO)cc1 (stereo partly specified)
50 | 3000 nM |  | COc1ccc(S(=O)(=O)N(Cc2cccnc2)[C@@H](C(=O)NO)C(C)C)cc1 [CGS-27023A]
